The numbers were not newly measured in US20090148519A1, “PULSED-RELEASE PREPARATION HAVING IMPROVED DISINTEGRATION PROPERTIES IN VIVO” (priority 2005, published 2009), which cites them from elsewhere.

For orientation: half-life means how long it takes for the measured level to halve.

For the compound `COc1ccnc(C[S+]([O-])c2nc3cc(OC(F)F)ccc3[nH]2)c1OC` (centres unmarked) [pantoprazole], the “half-life at pH 7” value is on record as 39 hours.
As to `COCCCOc1ccnc(C[S+]([O-])c2nc3ccccc3[nH]2)c1C` (centres unmarked) [rabeprazole], the “half-life at pH 7” value is 30 minutes.
